Source: patent EP1480941B1, “UREA DERIVATIVES AS HIV ASPARTYL PROTEASE INHIBITORS” (priority 2002, dated 2003)

What follows are compounds tested against HIV protease (Human immunodeficiency virus type 1 group M subtype B, UniProt P04585) (assay: Enzymatic (fluorometric FRET) assay for determining the inhibition constant (Ki)). Conditions: EDANS/DABCYL substrate, equation of Henderson.
Assay type: biochemical
Description: Enzymatic assay for determining the inhibition constant (Ki) of synthetic compounds targeting the HIV protease
This is a fluorometric assay based on the cleavage by protease of a substrate carrying a donor group (EDANS) and an acceptor group (DABCYL) on each side of the cleavage site, interacting together through fluorescence resonance energy transfer (FRET) as described by Matayoshi et al. (Science 247:[…], 1990).
After calculation of Vo and Vi, the inhibition constant (Ki) of the compound is determined using the equation of Henderson: (Vo)/(Vi) = 1 + ([I])/(Kiapp) Where Ki = (Kiapp)/((1 + [S])/(Km)) [formula] where Vo = the enzyme's initial velocity Vi = the enzyme velocity in the presence of the inhibitory compound, [I] = inhibitor concentration, [S] = substrate concentration, Km = Michaelis-Menten constant and Kiapp = apparent Ki
Graphs are traced and the Ki determined using GraphPad Prism software v. 3.0.
`CCC(C)CN([C@H](CO)CCCCNC(=O)N(Cc1ccccc1)Cc1ccc2c(c1)OCO2)S(=O)(=O)c1ccc(N)cc1` (stereo partly drawn) [Example 98, (2S) 2-N-(4-aminobenzenesulfonyl)-2-N-(2-methylbutyl)-6-N-[N'-benzyl-N'-piperonylaminocarbonyl]-2,6-diaminohexanol] gave a Ki of 13 nM.

Same assay, conditions: EDANS/DABCYL substrate, equation of Henderson; read-out: Ki
Compound `CCC(C)CN(C(CO)CCCCNC(=O)N(Cc1ccc(OC)cc1)Cc1ccc2c(c1)OCO2)S(=O)(=O)c1ccc(N)cc1` [Example 100, (2S) 2-N-(4-aminobenzenesulfonyl)-2-N-(2-methylbutyl)-6-N-[N'-(4-methoxybenzyl)-N'-piperonylaminocarbonyl]-2,6-diaminohexanol] has a Ki greater than 300 nM.

Same assay, conditions: Ki, EDANS/DABCYL substrate, equation of Henderson
`CC(C)CCN([C@H](CO)CCCCNC(=O)N(Cc1ccccc1)Cc1ccccc1)S(=O)(=O)c1ccc(N)cc1` [Example 86, (2S) 2-N-(4-aminobenzenesulfonyl)-2-N-(3-methylbutyl)-6-N-(N'-N'-dibenzylaminocarbonyl)-2,6-diaminohexanol] gave a Ki of 5.8 nM.
With `CC(C)CCN([C@H](CO)CCCCNC(=O)N(Cc1ccc2c(c1)OCO2)Cc1cccs1)S(=O)(=O)c1ccc(N)cc1` [Example 87, (2S) 2-N-(4-aminobenzenesulfonyl)-2-N-(3-methylbutyl)-6-N-[N'-(2-thiophenemethyl)-N'-piperonylaminocarbonyl]-2,6-diaminohexanol] the Ki was 1.4 nM.
`COc1ccc(CN(Cc2ccc3c(c2)OCO3)C(=O)NCCCC[C@@H](CO)N(CCC(C)C)S(=O)(=O)c2ccc(N)cc2)cc1` [Example 88, (2S) 2-N-(4-aminobenzenesulfonyl)-2-N-(3-methylbutyl)-6-N-[N'-(4-methoxybenzyl)-N'-piperonylaminocarbonyl]-2,6-diaminohexanol] showed a Ki of 2.9 nM.
`CC(C)CN([C@H](CO)CCCCNC(=O)N(Cc1ccccc1)Cc1cccc2c1OCO2)S(=O)(=O)c1ccc(N)cc1` [Example 91, (2S) 2-N-(4-aminobenzenesulfonyl)-2-N-isobutyl-6-N-[N'-benzyl-N'-(2,3-methylenedioxy)benzylaminocarbonyl]-2,6-diaminohexanol] was tested, and the Ki was 5.4 nM.
For `CC(C)CN([C@H](CO)CCCCNC(=O)N(Cc1ccccc1)Cc1ccc(F)cc1F)S(=O)(=O)c1ccc(N)cc1` [Example 93, (2S) 2-N-(4-aminobenzenesulfonyl)-2-N-isobutyl-6-N-[N'-benzyl-N'-(2,4-difluorobenzyl)aminocarbonyl]-2,6-diaminohexanol], the Ki was 12 nM.
`CC(C)CCN([C@H](CO)CCCCNC(=O)N(Cc1ccccc1)Cc1cccc2c1OCO2)S(=O)(=O)c1ccc(N)cc1` [Example 96, (2S) 2-N-(4-aminobenzenesulfonyl)-2-N-(3-methylbutyl)-6-N-[N'-benzyl-N'-(2,3-methylenedioxy)benzylaminocarbonyl]-2,6-diaminohexanol] was tested, and the Ki was 4 nM.
`CC(C)CCN([C@H](CO)CCCCNC(=O)N(Cc1ccccc1)Cc1ccc2c(c1)OCO2)S(=O)(=O)c1ccc(N)cc1` [Example 101, (2S) 2-N-(4-aminobenzenesulfonyl)-2-N-(3-methylbutyl)-6-N-[N'-benzyl-N'-piperonylaminocarbonyl]-2,6-diaminohexanol] showed a Ki of 4.1 nM.
For `CC(C)CCN([C@H](CO)CCCCNC(=O)N(Cc1ccc(F)cc1)Cc1ccc2c(c1)OCCO2)S(=O)(=O)c1ccc(N)cc1` [Example 103, (2S) 2-N-(4-aminobenzenesulfonyl)-2-N-(3-methylbutyl)-6-N-[N'-(4-fluorobenzyl)-N'-(3,4-ethylenedioxy)benzylaminocarbonyl]-2,6-diaminohexanol], the Ki was 5.4 nM.
For `CC(C)CCN([C@H](CO)CCCCNC(=O)N(Cc1ccc2c(c1)OCO2)CC(C)C)S(=O)(=O)c1ccc(N)cc1` [Example 104, (2S) 2-N-(4-aminobenzenesulfonyl)-2-N-(3-methylbutyl)-6-N-(N'-isobutyl-N'-piperonylaminocarbonyl)-2,6-diaminohexanol], the Ki was 77 nM.
